Test results taken from ChEMBL document CHEMBL1133615 (J Med Chem, 2000).

Tests used:
Endothelin-1 receptor = target: T1, Endothelin-1 receptor (Homo sapiens, UniProt P25101)
T1 sequence (P25101 whole entry): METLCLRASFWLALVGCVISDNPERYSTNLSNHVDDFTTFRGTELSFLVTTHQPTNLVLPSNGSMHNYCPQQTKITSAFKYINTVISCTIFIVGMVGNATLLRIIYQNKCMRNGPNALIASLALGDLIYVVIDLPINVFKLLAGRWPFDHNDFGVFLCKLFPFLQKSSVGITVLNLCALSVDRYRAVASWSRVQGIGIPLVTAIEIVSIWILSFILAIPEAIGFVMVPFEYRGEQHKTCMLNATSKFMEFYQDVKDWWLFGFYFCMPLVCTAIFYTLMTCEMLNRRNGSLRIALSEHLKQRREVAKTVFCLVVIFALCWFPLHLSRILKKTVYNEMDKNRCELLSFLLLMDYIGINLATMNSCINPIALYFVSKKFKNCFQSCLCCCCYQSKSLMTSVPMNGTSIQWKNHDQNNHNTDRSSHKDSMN
Description: Inhibition of Human Endothelin A receptor expressed in CHO Cells.

[1] = target: T2, Endothelin receptor type B (Homo sapiens, UniProt P24530); experiment: Inhibition of Human Endothelin B receptor expressed in CHO Cells.
T2 sequence (P24530 whole entry): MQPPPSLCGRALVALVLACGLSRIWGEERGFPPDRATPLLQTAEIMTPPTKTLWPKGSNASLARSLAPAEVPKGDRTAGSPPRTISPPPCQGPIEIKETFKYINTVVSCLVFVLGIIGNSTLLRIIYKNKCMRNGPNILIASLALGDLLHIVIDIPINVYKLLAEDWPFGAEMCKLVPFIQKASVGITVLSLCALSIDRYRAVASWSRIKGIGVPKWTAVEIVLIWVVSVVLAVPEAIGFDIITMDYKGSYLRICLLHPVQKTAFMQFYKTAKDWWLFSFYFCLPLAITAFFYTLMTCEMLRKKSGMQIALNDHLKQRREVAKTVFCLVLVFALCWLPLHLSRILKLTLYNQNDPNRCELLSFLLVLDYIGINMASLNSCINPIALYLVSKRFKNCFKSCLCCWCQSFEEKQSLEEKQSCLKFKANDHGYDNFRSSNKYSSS

Oryctolagus cuniculus = species: Oryctolagus cuniculus; experiment: Inhibition of Endothelin-1 induced contractions in rabbit carotid artery rings.; format: functional

Row | Ki (Endothelin-1 receptor) | Ki [1] | SMILES | Kb (Oryctolagus cuniculus)
1 | 0.0047 µM | 94 µM | Cc1noc(NS(=O)(=O)c2ccccc2-c2ccc(-c3ncoc3C)cc2)c1C | 0.047 µM
2 | 0.002 µM | 100 µM | Cc1coc(-c2ccc(-c3ccccc3S(=O)(=O)Nc3onc(C)c3C)cc2)n1 | 0.018 µM
3 | 0.0005 µM | 20 µM | Cc1noc(NS(=O)(=O)c2ccccc2-c2ccc(-c3cocn3)cc2)c1C | 0.02 µM
4 | 0.018 µM | 1.7 µM | Cc1noc(NS(=O)(=O)c2ccccc2-c2ccc(CC(C)C)cc2)c1C | 0.21 µM
5 | 0.0047 µM | – | Cc1noc(NS(=O)(=O)c2ccccc2-c2ccc(CC(C)C)cc2N)c1C | –
6 | 0.016 µM | 12 µM | Cc1nc(-c2ccc(-c3ccccc3S(=O)(=O)Nc3onc(C)c3C)cc2)oc1C | 0.23 µM
7 | 0.07 µM | 110 µM | Cc1nc(-c2ccc(-c3ccccc3S(=O)(=O)Nc3onc(C)c3C)cc2)co1 | 2.5 µM
8 | 0.0037 µM | 78 µM | Cc1noc(NS(=O)(=O)c2ccccc2-c2ccc(-c3cnco3)cc2)c1C | 0.058 µM
9 | 2 µM | 94 µM | Cc1noc(NS(=O)(=O)c2ccccc2-c2ccc(-c3nc4ccccc4o3)cc2)c1C | –
10 | 0.019 µM | 34 µM | Cc1noc(NS(=O)(=O)c2ccccc2-c2ccc(Cc3ncco3)cc2)c1C | 0.32 µM
11 | 0.011 µM | 12 µM | Cc1cnc(-c2ccc(-c3ccccc3S(=O)(=O)Nc3onc(C)c3C)cc2)o1 | 0.14 µM
